Laboratory results taken from paper PMC5526998, “Structural analysis of the regulatory mechanism of MarR protein Rv2887 in M. tuberculosis” (Scientific Reports, 2017).

Target: Rv2887 (Mycobacterium tuberculosis, UniProt P9WME9)
Test: biochemical

Chain of Rv2887 (P9WME9 whole entry): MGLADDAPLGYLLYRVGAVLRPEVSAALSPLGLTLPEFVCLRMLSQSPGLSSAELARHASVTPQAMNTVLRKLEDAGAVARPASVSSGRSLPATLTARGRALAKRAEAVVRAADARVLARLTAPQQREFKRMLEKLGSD

SMILES | Kd [µM]
Nc1ccc(C(=O)O)c(O)c1 [PAS] | 183
Cc1ccc(C)c(OCCCC(C)(C)C(=O)O)c1 [gemfibrozil] | 7.94
